Numbers after ± are expanded uncertainties. Values belong to the molecule of their own block, whether it stands above or below them.
What was measured:
[1] = 298.15 K, 100 kPa, Liquid; for viscosity: Falling or rolling sphere viscometry; for mass density: Vibrating tube method
[2] = xn = mol fraction of the nth substance listed; details: 298.2 K, 100 kPa, Liquid, x1 = 0.0843
[3] = wn = mass fraction of the nth substance listed; details: 298.2 K, 100 kPa, Liquid; for viscosity: Falling or rolling sphere viscometry; for mass density: Vibrating tube method

Compound: C=CCc1ccc(O)c(OC)c1 [2-hydroxy-5-allylanisole]
viscosity [1]: 6.98 ± 0.08 mPa·s
mass density [1]: 1062 ± 2 kg/m3

Compound: C=CC(C)(O)CCC=C(C)C (stereo not drawn) [3,7-dimethyl-1,6-octadien-3-ol]
viscosity [1]: 4.35 ± 0.05 mPa·s
mass density [1]: 857.3 ± 1.7 kg/m3

Compound: C/C1=C\CC/C(C)=C/CC(C)(C)/C=C/C1 [(E,E,E)-2,6,6,9-tetramethyl-1,4,8-cycloundecatriene] + C=C1CC/C=C(\C)CC[C@@H]2[C@@H]1CC2(C)C
viscosity ([2]; Falling or rolling sphere viscometry): 5.87 ± 0.07 mPa·s
mass density ([2]; Vibrating tube method): 897.1 ± 1.8 kg/m3

Compound: C=CC(C)(CCC=C(C)C)OC(C)=O (stereo not drawn) [linalool acetate]
viscosity [1]: 2.3 ± 0.03 mPa·s
mass density [1]: 898.6 ± 1.8 kg/m3

Compound: O [water]
viscosity [1]: 0.89 ± 0.01 mPa·s

Second part, the molecule after the results:

viscosity [1]: 0.87 ± 0.01 mPa·s
mass density [1]: 839.1 ± 1.7 kg/m3
Compound: C=C(C)[C@H]1CC=C(C)CC1 [(R)-1-methyl-4-(1-methylethenyl)cyclohexene]

viscosity [1]: 1.13 ± 0.01 mPa·s
mass density [1]: 785.1 ± 1.6 kg/m3
Compound: CCO [ethanol]

viscosity ([3]; w2 = 0.061): 1.31 ± 0.02 mPa·s
viscosity ([3]; w2 = 0.124): 1.46 ± 0.02 mPa·s
viscosity ([3]; w2 = 0.172): 1.64 ± 0.04 mPa·s
viscosity ([3]; w2 = 0.233): 1.8 ± 0.03 mPa·s
viscosity ([3]; w2 = 0.276): 1.87 ± 0.02 mPa·s
viscosity ([3]; w2 = 0.34): 1.9 ± 0.1 mPa·s
viscosity ([3]; w2 = 0.41): 2.19 ± 0.15 mPa·s
viscosity ([3]; w2 = 0.5): 2.31 ± 0.03 mPa·s
viscosity ([3]; w2 = 0.62): 2.34 ± 0.02 mPa·s
mass density ([3]; w2 = 0.061): 802.5 ± 1.9 kg/m3
mass density ([3]; w2 = 0.124): 819.5 ± 2 kg/m3
mass density ([3]; w2 = 0.172): 833.4 ± 3.1 kg/m3
mass density ([3]; w2 = 0.233): 848.2 ± 3.3 kg/m3
mass density ([3]; w2 = 0.276): 857.9 ± 2.6 kg/m3
mass density ([3]; w2 = 0.34): 861.8 ± 9 kg/m3
mass density ([3]; w2 = 0.41): 887.3 ± 18 kg/m3
mass density ([3]; w2 = 0.5): 908.8 ± 4.9 kg/m3
mass density ([3]; w2 = 0.62): 935.2 ± 9 kg/m3
Compound: CCO [ethanol] + O

viscosity [1]: 4.23 ± 0.04 mPa·s
mass density [1]: 1031 ± 2 kg/m3
Compound: C=CCc1ccc(OC)c(OC)c1 [methyleugenol]

From the NIST ThermoML archive (doi:10.1021/acs.jced.8b00939)
